Results from publication PMC11012124, “Synthesis of Novel Triazine-Based Chalcones and 8,9-dihydro-7H-pyrimido[4,5-b][1,4]diazepines as Potential Leads in the Search of Anticancer, Antibacterial and Antifungal Agents” (International Journal of Molecular Sciences, 2024).
Converted amounts (≈) assume the structure as drawn.

Experiments:
[1] = system: N. gonorrhoeae ATCC 49226; experiment: MIC on GC agar plates; format: cell-based, Neisseria gonorrhoeae; details: Neisseria gonorrhoeae, ATCC49226, read-out: MIC
In short: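 N. gonorrhoeae (1 × 10^4 CFU) was spotted onto IsoVitaleX-supplemented (1%) GC agar containing graded compound levels. The lowest inhibitory concentration was recorded as the MIC, with oxidase testing used to verify growth, and each assay was done in duplicate on at least two separate occasions.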

[2] = Hemolytic activity, spectrophotometric; format: cell-based, human; details: human, human red blood cells (huRBC), 5% hematocrit, 200 μg/mL, 37 °C
K-562 = experiment: cells; details: Homo sapiens, K562, 48 h; for GI50: K-562, 48 h; for CC50: read-out: LC50
MOLT-4 = experiment: cells; details: Homo sapiens, MOLT-4, 48 h; for CC50: read-out: LC50
SR = experiment: cells; details: Homo sapiens, 48 h
HOP-92 = experiment: cells; details: Homo sapiens, HOP-92, 48 h; for CC50: read-out: LC50
NCI-H522 = experiment: cells; details: Homo sapiens, NCI-H522, 48 h; for CC50: read-out: LC50
HCC-2998 = experiment: cells; details: Homo sapiens, HCC 2998, 48 h; for CC50: read-out: LC50
HT29 = experiment: cells; details: Homo sapiens, HT-29, 48 h; for CC50: read-out: LC50
SF-539 = experiment: cells; details: Homo sapiens, SF-539, 48 h; for CC50: read-out: LC50, SF-539, 48 h
LOX IMVI = experiment: cells; details: Homo sapiens, 48 h; for CC50: read-out: LC50, LOX IMVI, 48 h
UACC-62 = experiment: cells; details: Homo sapiens, UACC-62, 48 h; for CC50: read-out: LC50
OVCAR-3 = experiment: cells; details: Homo sapiens, OVCAR-3, 48 h; for CC50: read-out: LC50
NCI/ADR-RES = experiment: cells; details: Homo sapiens, 48 h; for CC50: read-out: LC50
SK-OV-3 = experiment: cells; details: Homo sapiens, SK-OV-3, 48 h; for CC50: read-out: LC50
A498 = experiment: cells; details: Homo sapiens, A498, 48 h; for CC50: read-out: LC50
CAKI-1 = experiment: cells; details: Homo sapiens, CAKI-1, 48 h; for CC50: read-out: LC50
RXF 393 = experiment: cells; details: Homo sapiens, RXF 393, 48 h; for CC50: read-out: LC50
TK-10 = experiment: cells; details: Homo sapiens, TK-10, 48 h; for CC50: read-out: LC50
PC-3 = experiment: cells; details: Homo sapiens, PC-3, 48 h; for CC50: read-out: LC50
DU-145 = experiment: cells; details: Homo sapiens, DU-145, 48 h; for CC50: read-out: LC50
MCF7 = experiment: cells; details: Homo sapiens, MCF7, 48 h; for CC50: read-out: LC50
MDA-MB-231/ATCC = experiment: cells; details: Homo sapiens, MDA-MB-231, 48 h; for CC50: read-out: LC50
HS 578T = experiment: cells; details: Homo sapiens, 48 h; for CC50: read-out: LC50
T-47D = experiment: cells; details: Homo sapiens, T47D, 48 h; for CC50: read-out: LC50
MDA-MB-468 = experiment: cells; details: Homo sapiens, MDA-MB-468, 48 h; for CC50: read-out: LC50
[3] = system: M. tuberculosis ATCC 27294; experiment: Antitubercular broth microdilution MIC; format: cell-based; details: Mycobacterium tuberculosis; M. tuberculosis ATCC 27294 (H37Rv); read-out: Minimum inhibitory concentration (MIC)

Nc1nc(N)c2c(n1)NC(c1ccc(F)cc1)CC(c1ccc(Nc3nc(NCCO)nc(Nc4ccc(Cl)cc4)n3)cc1)=N2 (centres unmarked) [33f]
MIC [1]: 1 µg/mL (≈ 1.59 µM) | hemolysis at 24 h, 200 µg/mL [2]: 5% | GI50 (K-562): 0.489 µM | CC50 (K-562): > 100 µM | GI50 (MOLT-4): 0.532 µM | CC50 (MOLT-4): > 100 µM | GI50 (SR): 0.672 µM | CC50 (SR; read-out: LC50): > 100 µM | GI50 (HOP-92): 1.25 µM | CC50 (HOP-92): 10.2 µM | GI50 (NCI-H522): 1.43 µM | CC50 (NCI-H522): 6.16 µM | GI50 (HCC-2998): 1.61 µM | CC50 (HCC-2998): 5.78 µM | GI50 (HT29): 1.42 µM | CC50 (HT29): 7.01 µM | GI50 (SF-539): 1.56 µM | CC50 (SF-539): 6.36 µM | GI50 (LOX IMVI): 1.52 µM | GI50 (UACC-62): 1.96 µM | GI50 (OVCAR-3): 1.58 µM | CC50 (OVCAR-3): 6.82 µM | GI50 (NCI/ADR-RES): 7.73 µM | CC50 (NCI/ADR-RES): > 100 µM | GI50 (SK-OV-3): 12.9 µM | CC50 (SK-OV-3): 50.5 µM | GI50 (A498): 3.72 µM | CC50 (A498): 39.1 µM | GI50 (CAKI-1): 6.14 µM | CC50 (CAKI-1): > 100 µM | GI50 (RXF 393): 1.17 µM | CC50 (RXF 393): 5.9 µM | GI50 (TK-10): 4.61 µM | CC50 (TK-10): 45.5 µM | GI50 (PC-3): 1.72 µM | CC50 (PC-3): > 100 µM | GI50 (DU-145): 1.75 µM | CC50 (DU-145): 7 µM | GI50 (MCF7): 0.956 µM | CC50 (MCF7): 6 µM | GI50 (MDA-MB-231/ATCC): 1.78 µM | GI50 (HS 578T): 2.04 µM | CC50 (HS 578T): > 100 µM | GI50 (T-47D): 1.27 µM | CC50 (T-47D): 8.09 µM | GI50 (MDA-MB-468): 1.48 µM | CC50 (MDA-MB-468): 6.7 µM

CN(C)c1nc(NCCNS(=O)(=O)c2ccc(C(=O)/C=C/c3ccc(C(F)(F)F)cc3)cc2)nc(Nc2ccc(F)cc2)n1 [24g]
MIC [3]: 50 µg/mL (≈ 79.4 µM) | hemolysis at 24 h, 200 µg/mL [2]: 0.8% | GI50 (K-562): 2.98 µM | CC50 (K-562): 30.4 µM | GI50 (MOLT-4): 2.9 µM | CC50 (MOLT-4): 9.61 µM | GI50 (HOP-92): 6.15 µM | CC50 (HOP-92): 20.7 µM | GI50 (NCI-H522): 11.2 µM | CC50 (NCI-H522): 24.7 µM | GI50 (HCC-2998): 1.77 µM | CC50 (HCC-2998): 3.61 µM | GI50 (HT29): 1.91 µM | CC50 (HT29): 3.95 µM | GI50 (SF-539): 10.7 µM | CC50 (SF-539): 22.5 µM | GI50 (LOX IMVI): 1.86 µM | CC50 (LOX IMVI): 3.84 µM | GI50 (UACC-62): 6.24 µM | CC50 (UACC-62): 19.4 µM | GI50 (OVCAR-3): 2.04 µM | CC50 (OVCAR-3): 5.61 µM | GI50 (NCI/ADR-RES): 10.7 µM | CC50 (NCI/ADR-RES): 23.7 µM | GI50 (SK-OV-3): 13.7 µM | CC50 (SK-OV-3): 27.8 µM | GI50 (A498): 13 µM | CC50 (A498): 26.2 µM | GI50 (CAKI-1): 6.46 µM | CC50 (CAKI-1): 19.7 µM | GI50 (RXF 393): 3.7 µM | CC50 (RXF 393): 16 µM | GI50 (TK-10): 17.4 µM | CC50 (TK-10): 32 µM | GI50 (PC-3): 4.15 µM | CC50 (PC-3): 18.2 µM | GI50 (DU-145): 11.2 µM | CC50 (DU-145): 24 µM | GI50 (MCF7): 1.7 µM | CC50 (MCF7): 3.56 µM | GI50 (MDA-MB-231/ATCC): 8.38 µM | CC50 (MDA-MB-231/ATCC): 20.8 µM | GI50 (HS 578T): 12.7 µM | CC50 (HS 578T): 49.5 µM | GI50 (T-47D): 5.16 µM | CC50 (T-47D): 19.6 µM | GI50 (MDA-MB-468): 4.53 µM | CC50 (MDA-MB-468): 17 µM

CN(C)c1nc(NCCNS(=O)(=O)c2ccc(C(=O)/C=C/c3ccc(F)cc3)cc2)nc(Nc2ccc(F)cc2)n1 [24f]
MIC [3]: 25 µg/mL (≈ 43.1 µM) | hemolysis at 24 h, 200 µg/mL [2]: 9.9% | GI50 (K-562): 2.42 µM | CC50 (K-562): 6.79 µM | GI50 (MOLT-4): 2.5 µM | CC50 (MOLT-4): 6.49 µM | GI50 (HOP-92): 2.49 µM | CC50 (HOP-92): 6.51 µM | GI50 (NCI-H522): 2.81 µM | CC50 (NCI-H522): 8.9 µM | GI50 (HCC-2998): 1.8 µM | CC50 (HCC-2998): 3.45 µM | GI50 (HT29): 1.9 µM | CC50 (HT29): 3.65 µM | GI50 (SF-539): 2.52 µM | CC50 (SF-539): 6.78 µM | GI50 (LOX IMVI): 1.66 µM | CC50 (LOX IMVI): 3.07 µM | GI50 (UACC-62): 3.57 µM | CC50 (UACC-62): 14.6 µM | GI50 (OVCAR-3): 1.74 µM | CC50 (OVCAR-3): 3.24 µM | GI50 (NCI/ADR-RES): 3.25 µM | CC50 (NCI/ADR-RES): 11.6 µM | GI50 (SK-OV-3): 8.23 µM | CC50 (SK-OV-3): 21.6 µM | GI50 (A498): 6.21 µM | CC50 (A498): 19.3 µM | GI50 (CAKI-1): 3.01 µM | CC50 (CAKI-1): 12.7 µM | GI50 (RXF 393): 2.26 µM | CC50 (RXF 393): 7.51 µM | GI50 (TK-10): 4.62 µM | CC50 (TK-10): 16.6 µM | GI50 (PC-3): 2.76 µM | CC50 (PC-3): 10.6 µM | GI50 (DU-145): 3.94 µM | CC50 (DU-145): 14 µM | GI50 (MCF7): 1.8 µM | CC50 (MCF7): 3.46 µM | GI50 (MDA-MB-231/ATCC): 2.64 µM | CC50 (MDA-MB-231/ATCC): 8.39 µM | GI50 (HS 578T): 6.3 µM | CC50 (HS 578T): 71.5 µM | GI50 (T-47D): 3.02 µM | CC50 (T-47D): 11.7 µM | GI50 (MDA-MB-468): 2.55 µM | CC50 (MDA-MB-468): 8.09 µM
